Test results from ChEMBL document CHEMBL3860041, “Synthesis, biological evaluation and molecular modeling study of some new methoxylated 2-benzylthio-quinazoline-4(3H)-ones as nonclassical antifolates” (Bioorg Med Chem Lett, 2016).
In brackets after ≈: the same amount, converted by molar mass. Each block holds one compound with its values, some of them ahead of it.

What was measured:
Dihydrofolate reductase = target: T1, Dihydrofolate reductase (Bos taurus, UniProt P00376); experiment: Inhibition of bovine liver DHFR preincubated for 2 mins followed by addition of FH2 as substrate and NADPH
T1 sequence (P00376 whole entry): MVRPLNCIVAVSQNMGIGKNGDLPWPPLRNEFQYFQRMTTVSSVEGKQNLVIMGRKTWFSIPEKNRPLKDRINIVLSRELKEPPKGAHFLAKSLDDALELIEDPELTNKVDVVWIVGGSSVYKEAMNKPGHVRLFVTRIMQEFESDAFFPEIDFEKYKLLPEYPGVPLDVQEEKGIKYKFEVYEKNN

Staphylococcus aureus [1] = experiment: Antimicrobial activity against Staphylococcus aureus IFO 3060 at 200 ug/disc measured after 24 hrs by agar disc-diffusion method; type: functional; conditions: IFO 3060, 24 h, read-out: DIZ
Pseudomonas aeruginosa [2] = experiment: Antimicrobial activity against Pseudomonas aeruginosa IFO 3448 at 200 ug/disc measured after 24 hrs by agar disc-diffusion method; type: functional; conditions: IFO 3448, 24 h, read-out: DIZ
Staphylococcus aureus [3] = experiment: Antimicrobial activity against Staphylococcus aureus IFO 3060 measured after 24 hrs by microdilution method; type: functional; conditions: IFO 3060, 24 h
Candida albicans = experiment: Antimicrobial activity against Candida albicans IFO 0583 at 200 ug/disc measured after 48 hrs by agar disc-diffusion method; type: functional; conditions: IFO 0583, 48 h, read-out: DIZ
Bacillus subtilis [4] = experiment: Antimicrobial activity against Bacillus subtilis IFO 3007 at 200 ug/disc measured after 24 hrs by agar disc-diffusion method; type: functional; conditions: IFO 3007, 24 h, read-out: DIZ
Bacillus subtilis [5] = experiment: Antimicrobial activity against Bacillus subtilis IFO 3007 measured after 24 hrs by microdilution method; type: functional; conditions: IFO 3007, 24 h
Escherichia coli [6] = experiment: Antimicrobial activity against Escherichia coli IFO 3301 at 200 ug/disc measured after 24 hrs by agar disc-diffusion method; type: functional; conditions: IFO 3301, 24 h, read-out: DIZ
Pseudomonas aeruginosa [7] = experiment: Antimicrobial activity against Pseudomonas aeruginosa IFO 3448 measured after 24 hrs by microdilution method; type: functional; conditions: IFO 3448, 24 h
Escherichia coli [8] = experiment: microbe, parasite or virus in culture; conditions: IFO 3301, 24 h
Description: Antimicrobial activity against Escherichia coli IFO 3301 measured after 24 hrs by microdilution method

- IC50 (Dihydrofolate reductase): 1000 nM
Compound: COc1ccccc1-n1c(SCc2cc(OC)c(OC)c(OC)c2)nc2ccc(C)cc2c1=O

- IC50 (Dihydrofolate reductase): 2000 nM
Compound: COc1ccc(CSc2nc3cc(OC)c(OC)cc3c(=O)n2-c2ccc(C)cc2)cc1

- IC50 (Dihydrofolate reductase): 1200 nM
Compound: COc1cc2nc(SCc3cc(OC)c(OC)c(OC)c3)n(-c3ccc(C)cc3)c(=O)c2cc1OC

- IC50 (Dihydrofolate reductase): 1200 nM
Compound: COc1ccc(-n2c(SCc3cc(OC)c(OC)c(OC)c3)nc3cc(OC)c(OC)cc3c2=O)cc1

- IC50 (Dihydrofolate reductase): 100 nM
Compound: COc1ccc(CSc2nc3ccc(C)cc3c(=O)n2-c2ccc(Cl)cc2)cc1

- IC50 (Dihydrofolate reductase): 900 nM
Compound: COc1cc(CSc2nc3ccc(C)cc3c(=O)n2-c2ccc(Cl)cc2)cc(OC)c1OC

- IC50 (Dihydrofolate reductase): 900 nM
- MIC (Staphylococcus aureus [3]): 4 µg/mL (≈ 7.56 µM)
- MIC (Escherichia coli [8]): 8 µg/mL (≈ 15.1 µM)
- MIC (Bacillus subtilis [5]): 2 µg/mL (≈ 3.78 µM)
Compound: COc1cc2nc(SCc3cc(OC)c(OC)c(OC)c3)n(-c3ccc(Cl)cc3)c(=O)c2cc1OC
- zone of inhibition at 200 µg/disc (Staphylococcus aureus [1]): 22 mm
- zone of inhibition at 200 µg/disc (Pseudomonas aeruginosa [2]): 12 mm
- zone of inhibition at 200 µg/disc (Candida albicans): 8 mm
- zone of inhibition at 200 µg/disc (Bacillus subtilis [4]): 26 mm
- zone of inhibition at 200 µg/disc (Escherichia coli [6]): 18 mm

Continued, compound first:

Compound: COc1ccc(CSc2nc3cc(OC)c(OC)cc3c(=O)n2-c2ccc(OC)cc2)cc1
- IC50 (Dihydrofolate reductase): 800 nM

Compound: COc1ccc(CSc2nc3ccc(Cl)cc3c(=O)n2-c2ccccc2OC)cc1
- IC50 (Dihydrofolate reductase): 800 nM

Compound: COc1ccc(CSc2nc3ccc(Cl)cc3c(=O)n2-c2ccc(OC)cc2OC)cc1
- zone of inhibition at 200 µg/disc (Staphylococcus aureus [1]): 15 mm
- IC50 (Dihydrofolate reductase): 1000 nM
- zone of inhibition at 200 µg/disc (Pseudomonas aeruginosa [2]): 8 mm
- MIC (Staphylococcus aureus [3]): 8 µg/mL (≈ 17.1 µM)
- zone of inhibition at 200 µg/disc (Candida albicans): 8 mm
- zone of inhibition at 200 µg/disc (Bacillus subtilis [4]): 18 mm
- MIC (Bacillus subtilis [5]): 4 µg/mL (≈ 8.53 µM)
- zone of inhibition at 200 µg/disc (Escherichia coli [6]): 8 mm

Compound: COc1ccc(CSc2nc3ccc(C)cc3c(=O)n2-c2ccc(OC)cc2)cc1
- IC50 (Dihydrofolate reductase): 1200 nM

Compound: COc1cc2nc(SCc3cc(OC)c(OC)c(OC)c3)n(-c3ccccc3)c(=O)c2cc1OC
- zone of inhibition at 200 µg/disc (Staphylococcus aureus [1]): 15 mm
- MIC (Pseudomonas aeruginosa [7]): 8 µg/mL (≈ 16.2 µM)
- IC50 (Dihydrofolate reductase): 900 nM
- zone of inhibition at 200 µg/disc (Pseudomonas aeruginosa [2]): 16 mm
- MIC (Staphylococcus aureus [3]): 8 µg/mL (≈ 16.2 µM)
- zone of inhibition at 200 µg/disc (Candida albicans): 8 mm
- zone of inhibition at 200 µg/disc (Bacillus subtilis [4]): 19 mm
- MIC (Escherichia coli [8]): 8 µg/mL (≈ 16.2 µM)
- MIC (Bacillus subtilis [5]): 8 µg/mL (≈ 16.2 µM)
- zone of inhibition at 200 µg/disc (Escherichia coli [6]): 18 mm

Compound: COc1ccc(CSc2nc3cc(OC)c(OC)cc3c(=O)n2-c2ccccc2)cc1
- zone of inhibition at 200 µg/disc (Staphylococcus aureus [1]): 24 mm
- IC50 (Dihydrofolate reductase): 4000 nM
- zone of inhibition at 200 µg/disc (Pseudomonas aeruginosa [2]): 8 mm
- MIC (Staphylococcus aureus [3]): 2 µg/mL (≈ 4.6 µM)
- zone of inhibition at 200 µg/disc (Candida albicans): 12 mm
- zone of inhibition at 200 µg/disc (Bacillus subtilis [4]): 26 mm
- MIC (Escherichia coli [8]): 8 µg/mL (≈ 18.4 µM)
- MIC (Bacillus subtilis [5]): 2 µg/mL (≈ 4.6 µM)
- zone of inhibition at 200 µg/disc (Escherichia coli [6]): 14 mm

Compound: COc1ccc(CSc2nc3ccc(C)cc3c(=O)n2-c2ccc(C)cc2)cc1
- IC50 (Dihydrofolate reductase): 1000 nM

Compound: COc1ccc(CSc2nc3ccc(Cl)cc3c(=O)n2-c2ccc(Cl)cc2)cc1
- IC50 (Dihydrofolate reductase): 3000 nM

Compound: COc1ccc(CSc2nc3ccc(Cl)cc3c(=O)n2-c2ccc(C)cc2)cc1
- IC50 (Dihydrofolate reductase): 4000 nM

Compound: COc1ccc(CSc2nc3ccc(C)cc3c(=O)n2-c2ccccc2)cc1
- zone of inhibition at 200 µg/disc (Staphylococcus aureus [1]): 18 mm
- IC50 (Dihydrofolate reductase): 100 nM
- zone of inhibition at 200 µg/disc (Pseudomonas aeruginosa [2]): 12 mm
- MIC (Staphylococcus aureus [3]): 4 µg/mL (≈ 10.3 µM)
- zone of inhibition at 200 µg/disc (Candida albicans): 8 mm
- zone of inhibition at 200 µg/disc (Bacillus subtilis [4]): 22 mm
- MIC (Escherichia coli [8]): 8 µg/mL (≈ 20.6 µM)
- MIC (Bacillus subtilis [5]): 2 µg/mL (≈ 5.15 µM)
- zone of inhibition at 200 µg/disc (Escherichia coli [6]): 16 mm
